Measurements as given in patent US7008613B2, “Quaternary ammonium compounds” (Les Laboratoires Servier, priority 1999, dated 2006).

Test: Tissue distribution study by measurement of radioactivity across whole-body sections
Type: in vivo, male Sprague-Dawley rats
Conditions: for radioactivity bound by the kidney (elimination organ): first minutes following the injection; for tissue distribution of radioactivity: target organs/tissues: labelled molecule, rat whole-body sections
Experimental: Pharmacokinetic Study: Tissue Distribution Study
This study was carried out with molecules labelled with ^14C. The tissue distribution study was carried out by direct measurement of the radioactivity across whole-body sections in accordance with the following method: male Sprague-Dawley rats were administered intravenously or orally with a dose of the labelled molecule. Then, at times ranging from 5 minutes to 24 hours after the administration, the animals were sacrificed by ether inhalation and frozen in liquid nitrogen.
Sections were then prepared using a cryomicrotome and, after desiccation, the distribution of radioactivity was measured using an image analyser.

| SMILES | radioactivity bound by the kidney (elimination organ) | tissue distribution of radioactivity: target organs/tissues (after injection) | affinity for cartilage (administration of the labelled molecule by the oral route) | time of maximum binding to cartilage (after injection) [min] | affinity of cartilage versus surrounding tissues (after injection of labelled molecule) |
| --- | --- | --- | --- | --- | --- |
| O=C(C[n+]1ccccc1)N[C@H]1C(O)O[C@H](CO)[C@@H](O)[C@@H]1O.[Cl-] (stereo partly drawn) [Example 5, 2-(Pyridinioacetamido)-2-deoxy-α,β-D-glucopyranose chloride] | binds significant amounts of radioactivity | cartilage, and to a lesser degree skin, are the only targets | – | – | – |
| CN1C(C(=O)NCCC[N+](C)(C)C)=C(O)c2ccccc2S1(=O)=O.[I-] [Example 6, {3-[(4-Hydroxy-2-methyl-1,1-dioxide-2H-1,2-benzothiazin-3-yl)-carboxamido]propyl}trimethylammonium iodide] | – | – | very high affinity for cartilage | 5 | cartilage exhibits a far greater affinity than the surrounding tissues |
| N[C@H]1C(O)O[C@H](CO)[C@@H](O)[C@@H]1O (some centres unmarked) [glucosamine, reference compound] | – | the liver is the main target organ | – | – | – |
| C[N+](C)(C)CC(=O)N[C@H]1C(O)O[C@H](CO)[C@@H](O)[C@@H]1O.[Cl-] (stereo partly drawn) [Example 4, 2-(N,N,N-trimethylammonioacetamido)-2-deoxy-α,β-D-glucopyranose chloride] | binds significant amounts of radioactivity | cartilage, and to a lesser degree skin, are the only targets | – | – | – |
